These results are taken from ChEMBL document CHEMBL1146606, “CoMFA and homology-based models of the glycine binding site of N-methyl-d-aspartate receptor” (J Med Chem, 2003).

As a reminder, the IC50 is the concentration that inhibits the measured activity by half.

Assay [1] has as its target Glutamate [NMDA] receptor. The experiment in a line: Compound was tested for inhibition of [3H]DCKA binding to N-methyl-D-aspartate glutamate receptor. The class given is protein-complex assay. Also on record: unit not given here.
Assay [2] addresses Glutamate [NMDA] receptor. The experiment in a line: Inhibition of [3H]DCKA binding to N-methyl-D-aspartate glutamate receptor. The class given is protein-complex assay.

For the compound `Oc1nc2cc3ccccc3cc2nc1O`, in assay [1], the Log 1/IC50 is -1.2. In addition, in assay [2], the IC50 was determined as 16 µM.
Take `CCc1cc2nc(O)c(O)nc2c([N+](=O)[O-])c1CC`: in assay [1], the “Log 1/IC50” value is listed as 0.8. This compound had an IC50 in assay [2] of 0.16 µM.
The matching figures for `O=Nc1c(O)nc2ccccc2c1O`: -0.15 and 1.4 µM.
For `Cc1c(Cl)cc2nc(O)c(O)nc2c1[N+](=O)[O-]` the same measures were 2.33 and 0.0047 µM.
As to `O=[N+]([O-])c1c(O)nc2c(Cl)cccc2c1O`, the Log 1/IC50 in assay [1] is -2. For the same compound, the IC50 in assay [2] is > 100 µM.
The matching figures for `Oc1nc2ccccc2nc1O`: -0.99 and 9.8 µM.
For `O=Nc1c(O)nc2cc(Cl)ccc2c1O` the same measures were 1.28 and 0.053 µM.
Turning to `CCc1cc2nc(O)c(O)nc2cc1Cl`, in assay [1], the Log 1/IC50 is -0.15. This compound also showed an IC50 in assay [2] of 1.4 µM.
For `Oc1nc2cc(Cl)cnc2c(O)c1Oc1cccc(-c2ccccc2)c1` the same measures were 1.64 and 0.023 µM.
The matching figures for `CCSc1c(Cl)cc2nc(O)c(O)nc2c1[N+](=O)[O-]`: 0.19 and 0.64 µM.
The matching figures for `O=Nc1c(O)nc2c(F)c(F)c(F)c(F)c2c1O`: -0.52 and 3.3 µM.
With `Oc1nc2cc(Cl)cnc2c(O)c1-c1ccccc1Cl`, in assay [1], the Log 1/IC50 is -1.38. For the same compound, in assay [2], the IC50 is 24 µM.
The matching figures for `Oc1nc2c(F)c(F)c(F)c(F)c2nc1O`: 0.14 and 0.73 µM.
As for `O=[N+]([O-])c1c(O)nc2cccc(Cl)c2c1O`, the Log 1/IC50 in assay [1] is -1.78. Besides, the IC50 in assay [2] was 61 µM.
For the compound `Cc1cc2nc(O)c(O)nc2cc1Cl`, the “Log 1/IC50” value in assay [1] was 0.11. Besides, the IC50 in assay [2] was 0.78 µM.
The matching figures for `COc1c(Cl)cc2nc(O)c(O)nc2c1[N+](=O)[O-]`: 0.82 and 0.15 µM.
The matching figures for `Oc1nc2cc3c(cc2nc1O)CCC3`: -1.17 and 15 µM.
The matching figures for `CCCCOc1c(F)cc2nc(O)c(O)nc2c1[N+](=O)[O-]`: -0.63 and 4.3 µM.
Consider `Cc1cc2nc(O)c(O)nc2c([N+](=O)[O-])c1C`, for which the “Log 1/IC50” value in assay [1] was 1.54. Also, the IC50 in assay [2] stood at 0.029 µM.
For `Oc1nc2cc(Cl)c(Cl)c(Cl)c2nc1O` the same measures were 1.53 and 0.03 µM.
For `O=[N+]([O-])c1c(O)nc2cc(Cl)cc(Cl)c2c1O` the same measures were 0.66 and 0.22 µM.
Take `O=[N+]([O-])c1c(O)nc2cc(Cl)c(Cl)c(Cl)c2c1O`: the “Log 1/IC50” value in assay [1] was 0.66. For the same compound, in assay [2], the half-maximal inhibitory concentration (IC50) is 0.22 µM.
For `CCc1cc2nc(O)c(O)nc2cc1CC` the same measures were -0.26 and 1.8 µM.
For `O=Nc1c(O)nc2ccc(Cl)c(Cl)c2c1O` the same measures were 0.77 and 0.17 µM.
Regarding `Cc1cc(C)c2nc(O)c(O)nc2c1`, the Log 1/IC50 in assay [1] was -0.32. In assay [2], this compound yielded an IC50 of 2.1 µM.
Take `Oc1nc2cc(Cl)c(Cl)cc2nc1O` [2,3-DIHYDROXY-6,7-DICHLOROQUINOXALINE]: the “Log 1/IC50” value in assay [1] is reported as 0.89. In addition, the 50% inhibitory concentration (IC50) in assay [2] was found to be 0.13 µM.
For `O=[N+]([O-])c1c(O)nc2c(F)c(Cl)c(F)cc2c1O` the same measures were -1.6 and 40 µM.
The matching figures for `CCc1c(Cl)cc2nc(O)c(O)nc2c1[N+](=O)[O-]`: 0.89 and 0.13 µM.
For `Oc1nc2ncccc2c(O)c1-c1ccccc1` the same measures were -2 and > 100 µM.
Take `COc1cc2nc(O)c(O)nc2c(O)c1OC`: in assay [1], the Log 1/IC50 is -1.23. Further, the IC50 in assay [2] was determined as 17 µM.
The matching figures for `COc1c(Br)cc2nc(O)c(O)nc2c1[N+](=O)[O-]`: 1.19 and 0.064 µM.
For `Cc1cc2nc(O)c(O)nc2c([N+](=O)[O-])c1Cl` the same measures were 1.35 and 0.045 µM.
Consider `CCc1cc2nc(O)c(O)nc2c([N+](=O)[O-])c1Br`, for which the “Log 1/IC50” value in assay [1] was determined as 1.09. This compound also gave an IC50 in assay [2] of 0.082 µM.
For `O=[N+]([O-])c1c(OCCCc2ccccc2)c(F)cc2nc(O)c(O)nc12` the same measures were -0.6 and 4 µM.
With `Cc1c(Br)cc2nc(O)c(O)nc2c1[N+](=O)[O-]`, the “Log 1/IC50” value in assay [1] was 2.06. Also, the IC50 in assay [2] was found to be 0.0087 µM.
For `Oc1nc2cc(Cl)cnc2c(O)c1-c1ccccc1` the same measures were -0.52 and 3.3 µM.
Take `CCOc1c(F)cc2nc(O)c(O)nc2c1[N+](=O)[O-]`: the Log 1/IC50 in assay [1] was -0.56. The IC50 in assay [2] is 3.6 µM.
The matching figures for `COc1cc2nc(O)c(O)nc2cc1OC`: -1.23 and 17 µM.
`O=[N+]([O-])c1c(O)nc2c(Cl)c(Cl)c(Cl)cc2c1O`: the Log 1/IC50 in assay [1] was -2. The IC50 in assay [2] was > 100 µM.
Turning to `COc1c(F)cc2nc(O)c(O)nc2c1[N+](=O)[O-]`, the Log 1/IC50 in assay [1] is -0.28. The same compound displayed a half-inhibitory concentration (IC50) in assay [2] of 1.9 µM.
With `N#Cc1cc([N+](=O)[O-])c2nc(O)c(O)nc2c1`, the Log 1/IC50 in assay [1] is -0.45. In assay [2], this compound gave an IC50 of 2.8 µM.
As to `O=[N+]([O-])c1c(O)nc2ccc(Cl)cc2c1O`, in assay [1], the Log 1/IC50 was -2. Also, the half-maximal inhibitory concentration (IC50) in assay [2] is > 100 µM.
For `Nc1c(F)cc2nc(O)c(O)nc2c1[N+](=O)[O-]` the same measures were -1.04 and 11 µM.
Regarding `Cc1c(C#N)cc2nc(O)c(O)nc2c1[N+](=O)[O-]`, the “Log 1/IC50” value in assay [1] is 1.14. Also, in assay [2], the 50% inhibitory concentration (IC50) was 0.073 µM.
For `Cc1c(F)cc2nc(O)c(O)nc2c1[N+](=O)[O-]` the same measures were 1.02 and 0.095 µM.
In the case of `O=[N+]([O-])c1c(O)nc2ccccc2c1O`, the Log 1/IC50 in assay [1] is -1.53. The compound further had a half-maximal inhibitory concentration (IC50) in assay [2] of 34 µM.
For `Oc1nc2cc(F)c(Cl)c(F)c2nc1O`, the “Log 1/IC50” value in assay [1] was 0.2. Moreover, the IC50 in assay [2] worked out at 0.63 µM.
For `CCc1cc2nc(O)c(O)nc2c([N+](=O)[O-])c1Cl` the same measures were 1.54 and 0.029 µM.
The matching figures for `O=Nc1c(O)nc2ccc(Cl)cc2c1O`: -0.53 and 3.4 µM.
With `Cc1cc2nc(O)c(O)nc2cc1C`, in assay [1], the Log 1/IC50 was -0.52. Also, the IC50 in assay [2] stood at 3.3 µM.
The matching figures for `Cc1c(Cl)cc2nc(O)c(O)nc2c1N`: 0.82 and 0.15 µM.
The matching figures for `O=Nc1c(O)nc2cc(Cl)c(Cl)c(Cl)c2c1O`: 2.15 and 0.007 µM.
The matching figures for `O=Nc1c(O)nc2cc(Cl)c(Cl)cc2c1O`: 1.92 and 0.012 µM.
With `O=c1[nH]c2cc3c(c([N+](=O)[O-])c2[nH]c1=O)CCC3`, in assay [1], the Log 1/IC50 is -0.49. Also, in assay [2], the half-maximal inhibitory concentration (IC50) was found to be 3.1 µM.
For `O=Nc1c(O)nc2c(F)c(Cl)c(F)cc2c1O` the same measures were 0.04 and 0.91 µM.
The matching figures for `O=Nc1c(O)nc2cc(Cl)cc(Cl)c2c1O`: 1.48 and 0.033 µM.
As to `O=Nc1c(O)nc2cccc(Cl)c2c1O`, the Log 1/IC50 in assay [1] was -0.64. Further, in assay [2], the 50% inhibitory concentration (IC50) is 4.4 µM.
The matching figures for `Oc1nc2ncccc2c(O)c1-c1cccc(Oc2ccccc2)c1`: -1.49 and 31 µM.
The matching figures for `Oc1cc2nc(O)c(O)nc2cc1O`: -2 and > 100 µM.
The matching figures for `Oc1nc2cc(Cl)cnc2c(O)c1-c1cccc(Cl)c1`: -0.48 and 3 µM.
On to `COc1cccc(-c2c(O)nc3cc(Cl)cnc3c2O)c1`, for which the Log 1/IC50 in assay [1] was -0.46. The IC50 in assay [2] worked out at 2.9 µM.
For `Cc1cc(C)c2c(O)c([N+](=O)[O-])c(O)nc2c1` the same measures were 0.54 and 0.29 µM.
For `Oc1nc2cc(Cl)cnc2c(O)c1-c1ccsc1`, the Log 1/IC50 in assay [1] is -0.63. The IC50 in assay [2] was determined as 4.3 µM.
The matching figures for `Oc1nc2ccc(Cl)cc2nc1O`: -0.25 and 1.8 µM.
The matching figures for `O=[N+]([O-])c1c(O)nc2cc(Cl)ccc2c1O`: -0.18 and 1.5 µM.
`Oc1nc2cc(Cl)cnc2c(O)c1-c1cccc(Oc2ccccc2)c1`: the “Log 1/IC50” value in assay [1] is 0.96. This compound also came in with an IC50 in assay [2] of 0.11 µM.
For `Oc1nc2cc3c(cc2nc1O)OCO3` the same measures were -2 and > 100 µM.
`Oc1nc2cc(Cl)cnc2c(O)c1-c1cccs1`: the Log 1/IC50 in assay [1] was -0.99. In assay [2], this compound showed an IC50 of 9.8 µM.
For `Oc1nc2ccncc2c(O)c1-c1cccc(Oc2ccccc2)c1` the same measures were -1.3 and 20 µM.
For `Oc1nc2cc(Cl)cnc2c(O)c1-c1ccc(Cl)cc1` the same measures were -1.11 and 13 µM.
For `O=c1[nH]c2cc(Cl)c(Cl)c([N+](=O)[O-])c2[nH]c1=O` [LICOSTINEL] the same measures were 2.23 and 0.0059 µM.
As to `Oc1nc2cccnc2c(O)c1-c1ccccc1`, the Log 1/IC50 in assay [1] is -2. Moreover, the IC50 in assay [2] is > 100 µM.
Take `O=[N+]([O-])c1c(O)nc2c(F)c(F)c(F)c(F)c2c1O`: the Log 1/IC50 in assay [1] was -2. Besides, the IC50 in assay [2] was > 100 µM.
The matching figures for `O=[N+]([O-])c1cccc(-c2c(O)nc3cc(Cl)cnc3c2O)c1`: -0.87 and 7.4 µM.
The matching figures for `COc1cc2nc(O)c(O)nc2cc1Br`: 0 and 1 µM.
The matching figures for `Oc1nc2ncc(Cl)cc2c(O)c1-c1ccccc1`: -2 and > 100 µM.
`O=[N+]([O-])c1c(O)nc2cc(Cl)c(Cl)cc2c1O`: in assay [1], the “Log 1/IC50” value was 0.4. For the same compound, in assay [2], the IC50 amounted to 0.4 µM.
The matching figures for `Cc1cccc(-c2c(O)nc3cc(Cl)cnc3c2O)c1`: -0.25 and 1.8 µM.
For `O=Nc1c(O)nc2c(Cl)cccc2c1O` the same measures were -2 and > 100 µM.
